Measured values published in PubChem BioAssay AID330 (DTP/NCI, 2004).
Several values for one entry are separate records, joined by “and”; a condition that tells them apart may be missing. Equal values may be shown once. Inconclusive results and toxic doses are left out. Rule for the calls: active = survival T/C of 150% or more; inactive = T/C below 125% in these data.

Tested on: P388 leukemia ip, CD2F1 mice, survival T/C
Assay: NCI In Vivo Anticancer Drug Screen. Data for tumor model P388 Leukemia (intraperitoneal) in CD2F1 (CDF1) mice
Details: endpoint: median survival time, higher = longer survival
Outline: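 Mice carrying the transplanted tumor received test compound or vehicle. Survival was recorded in each group, and the value is the treated-group measurement divided by that of the vehicle-treated control group.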

[1] = dose: 50.0 mg/kg/injection, schedule: Q01DX009 (ip), vehicle: saline
[2] = dose: 100.0 mg/kg/injection, schedule: Q01DX009 (ip), vehicle: saline
[3] = dose: 50.0 mg/kg/injection, schedule: Q01DX009 (ip), vehicle: saline with Tween-80
[4] = dose: 100.0 mg/kg/injection, schedule: Q01DX009 (ip), vehicle: saline with Tween-80
[5] = dose: 200.0 mg/kg/injection, schedule: Q01DX009 (ip), vehicle: saline with Tween-80
[6] = dose: 400.0 mg/kg/injection, schedule: Q01DX009 (ip), vehicle: saline with Tween-80
[7] = dose: 50.0 mg/kg/injection, schedule: Q01DX009 (ip), vehicle: suspension in saline
[8] = dose: 50.0 mg/kg/injection, schedule: Q01DX005 (ip), vehicle: saline with Tween-80
[9] = dose: 100.0 mg/kg/injection, schedule: Q01DX005 (ip), vehicle: saline with Tween-80
[10] = dose: 200.0 mg/kg/injection, schedule: Q01DX005 (ip), vehicle: saline with Tween-80
[11] = dose: 60.0 mg/kg/injection, schedule: Q01DX005 (ip), vehicle: saline with Tween-80
[12] = dose: 120.0 mg/kg/injection, schedule: Q01DX005 (ip), vehicle: saline with Tween-80
[13] = dose: 240.0 mg/kg/injection, schedule: Q01DX005 (ip), vehicle: saline with Tween-80

Measured: T/C

O=C1c2ccccc2NC(c2cc(Cl)cc(Cl)c2O)N1CCc1ccccn1 (stereo not given)
inactive: [1] 92 % of control | [2] 94 % of control

COc1ccc(NC(CCN2CCN(c3ccccc3)CC2)=NC(C)(C)C)cc1
inactive: dose: 50.0 mg/kg/injection, schedule: Q01DX009 (ip), vehicle: Klucel (hydroxypropylcellulose) (HPC) 96 % of control | dose: 100.0 mg/kg/injection, schedule: Q01DX009 (ip), vehicle: Klucel (hydroxypropylcellulose) (HPC) 96 % of control

CCOC(=O)C(Cc1ccc(O)cc1)Nc1nc2ccccc2o1 (stereo not given)
inactive: [3] 95 % of control | [4] 105 % of control | [5] 103 % of control | [6] 96 % of control

FC(F)(F)c1ccccc1NC(=S)SCc1ccco1
inactive: [7] 93 % of control | dose: 100.0 mg/kg/injection, schedule: Q01DX009 (ip), vehicle: suspension in saline 93 % of control

C=C(C)[C@H]1Cc2c(ccc3c2O[C@@H]2COc4cc(OC)c(OC)cc4[C@@H]2C3=O)O1
inactive: dose: 1.5 mg/kg/injection, schedule: Q01DX009 (ip), vehicle: saline with Tween-80 110 % of control | dose: 1.5 mg/kg/injection, schedule: Q04DX003 (ip), vehicle: saline with Tween-80 100 % of control | dose: 3.0 mg/kg/injection, schedule: Q01DX009 (ip), vehicle: saline with Tween-80 115 % of control | dose: 3.0 mg/kg/injection, schedule: Q04DX003 (ip), vehicle: saline with Tween-80 100 % of control | dose: 6.0 mg/kg/injection, schedule: Q01DX009 (ip), vehicle: saline with Tween-80 120 % of control | dose: 6.0 mg/kg/injection, schedule: Q04DX003 (ip), vehicle: saline with Tween-80 104 % of control | dose: 12.5 mg/kg/injection, schedule: Q01DX001 (ip), vehicle: saline with Tween-80 110 % of control | dose: 25.0 mg/kg/injection, schedule: Q01DX001 (ip), vehicle: saline with Tween-80 114 % of control | dose: 50.0 mg/kg/injection, schedule: Q01DX001 (ip), vehicle: saline with Tween-80 112 % of control

Cc1nsc(N)n1
inactive: dose: 6.25 mg/kg/injection, schedule: Q01DX009 (ip), vehicle: saline 100 % of control | dose: 6.25 mg/kg/injection, schedule: Q01DX009 (ip), vehicle: suspension in saline 94 % of control | dose: 12.5 mg/kg/injection, schedule: Q01DX009 (ip), vehicle: saline 100 % of control and 98 % of control | dose: 12.5 mg/kg/injection, schedule: Q01DX009 (ip), vehicle: suspension in saline 101 % of control | dose: 25.0 mg/kg/injection, schedule: Q01DX009 (ip), vehicle: saline 100 % of control and 98 % of control | dose: 25.0 mg/kg/injection, schedule: Q01DX009 (ip), vehicle: suspension in saline 102 % of control | [1] 99 % of control and 98 % of control | [7] 103 % of control

Oc1ccccc1N=Cc1ccc2c(c1)OCO2
inactive: dose: 25.0 mg/kg/injection, schedule: Q01DX005 (ip), vehicle: saline with Tween-80 103 % of control | [8] 110 % of control | [9] 104 % of control | [10] 110 % of control

CCC(c1ccc(OC)cc1)C(CC)c1ccc(O)c(CN(C)C)c1 (stereo not given)
inactive: [11] 94 % of control | [12] 92 % of control | [13] 92 % of control

CNC(=S)N(C)C
inactive: [1] 98 % of control | [2] 99 % of control | dose: 200.0 mg/kg/injection, schedule: Q01DX009 (ip), vehicle: saline 109 % of control

CCCCc1c(O)nc2nc(-c3ccccc3)c(-c3ccccc3)nn2c1=O
inactive: dose: 3.12 mg/kg/injection, schedule: Q01DX005 (ip), vehicle: Klucel (hydroxypropylcellulose) (HPC) 107 % of control | dose: 6.25 mg/kg/injection, schedule: Q01DX005 (ip), vehicle: Klucel (hydroxypropylcellulose) (HPC) 103 % of control | dose: 12.5 mg/kg/injection, schedule: Q01DX005 (ip), vehicle: Klucel (hydroxypropylcellulose) (HPC) 94 % of control

CCOC(=O)Nc1cc(Cl)ccc1O
inactive: dose: 100.0 mg/kg/injection, schedule: Q04DX003 (ip), vehicle: saline with Tween-80 90 % of control | dose: 200.0 mg/kg/injection, schedule: Q04DX003 (ip), vehicle: saline with Tween-80 90 % of control | dose: 400.0 mg/kg/injection, schedule: Q04DX003 (ip), vehicle: saline with Tween-80 90 % of control

C=C1C(=C)C2OC1c1cc3c(cc12)C(=O)c1ccccc1C3=O
inactive: [8] 90 % of control | [9] 109 % of control | [10] 114 % of control

O=C1NC(=O)C(CCC[n+]2ccccc2)(c2ccccc2)C(=O)N1
inactive: [3] 107 % of control | [4] 107 % of control

OCC1OC(n2cc(I)c3c2ncn2ccnc32)C(O)C1O (stereo not given)
inactive: dose: 1.56 mg/kg/injection, schedule: Q01DX009 (ip), vehicle: water 98 % of control | dose: 3.13 mg/kg/injection, schedule: Q01DX009 (ip), vehicle: water 102 % of control | dose: 6.25 mg/kg/injection, schedule: Q01DX009 (ip), vehicle: water 100 % of control | dose: 12.5 mg/kg/injection, schedule: Q01DX009 (ip), vehicle: water 102 % of control | dose: 25.0 mg/kg/injection, schedule: Q01DX009 (ip), vehicle: water 106 % of control

C[C@H](CS)C(=O)N1c2ccccc2C[C@H]1C(=O)O
inactive: [11] 101 % of control | [12] 104 % of control | [13] 113 % of control

Nc1ccccc1SC1CC(=O)N(c2ccc(Cl)cc2)C1=O (stereo not given)
inactive: [4] 105 % of control | [5] 110 % of control | [6] 100 % of control

CN(C)c1nc(=O)c2c(ccc3ccccc32)o1
inactive: [11] 97 % of control | [12] 104 % of control | [13] 101 % of control

CCOc1cc2c(cc1C/C=C/c1ccc(OC)cc1)OCO2
inactive: [11] 103 % of control | [12] 103 % of control | [13] 113 % of control

COC(=O)C1=C(c2ccccc2)ON2C(C)(C)COC12C (stereo not given)
inactive: dose: 50.0 mg/kg/injection, schedule: Q01DX005 (ip), vehicle: Klucel (hydroxypropylcellulose) (HPC) 106 % of control | dose: 100.0 mg/kg/injection, schedule: Q01DX005 (ip), vehicle: Klucel (hydroxypropylcellulose) (HPC) 106 % of control | dose: 200.0 mg/kg/injection, schedule: Q01DX005 (ip), vehicle: Klucel (hydroxypropylcellulose) (HPC) 100 % of control

CCOC(=N)N1[C@@H]2CCCC[C@@H]21
inactive: dose: 100.0 mg/kg/injection, schedule: Q04DX002 (ip), vehicle: saline 101 % of control | dose: 200.0 mg/kg/injection, schedule: Q04DX002 (ip), vehicle: saline 109 % of control | dose: 400.0 mg/kg/injection, schedule: Q04DX002 (ip), vehicle: saline 120 % of control

Cc1ccc([N+](=O)[O-])cc1NC(=O)Oc1ccccc1
inactive: dose: 100.0 mg/kg/injection, schedule: Q01DX009 (ip), vehicle: other 90 % of control | dose: 200.0 mg/kg/injection, schedule: Q01DX009 (ip), vehicle: other 110 % of control | dose: 400.0 mg/kg/injection, schedule: Q01DX009 (ip), vehicle: other 100 % of control

C/C(=N\N1CN(C(C)C(=O)O)P(Nc2ncn[nH]2)N=C1N)c1cccs1 (stereo not given)
inactive: dose: 7.5 mg/kg/injection, schedule: Q01DX005 (ip), vehicle: saline with Tween-80 96 % of control | dose: 15.0 mg/kg/injection, schedule: Q01DX005 (ip), vehicle: saline with Tween-80 103 % of control | dose: 30.0 mg/kg/injection, schedule: Q01DX005 (ip), vehicle: saline with Tween-80 106 % of control

O=C(c1ccccc1)C(C(=O)c1ccccc1)S(=O)(=O)c1ccccc1
inactive: [8] 93 % of control | [9] 93 % of control | [10] 91 % of control
